Where two headings read alike, the source gives them in different places.
What was measured:
human UGT1A9*3 = biological target: T1, human UGT1A9*3 (Homo sapiens, UniProt O60656, M33T); test: Glucuronidation by microsomes of HEK-293 cells stably expressing UGT1A9*3
T1 sequence (O60656 26-530 M33T): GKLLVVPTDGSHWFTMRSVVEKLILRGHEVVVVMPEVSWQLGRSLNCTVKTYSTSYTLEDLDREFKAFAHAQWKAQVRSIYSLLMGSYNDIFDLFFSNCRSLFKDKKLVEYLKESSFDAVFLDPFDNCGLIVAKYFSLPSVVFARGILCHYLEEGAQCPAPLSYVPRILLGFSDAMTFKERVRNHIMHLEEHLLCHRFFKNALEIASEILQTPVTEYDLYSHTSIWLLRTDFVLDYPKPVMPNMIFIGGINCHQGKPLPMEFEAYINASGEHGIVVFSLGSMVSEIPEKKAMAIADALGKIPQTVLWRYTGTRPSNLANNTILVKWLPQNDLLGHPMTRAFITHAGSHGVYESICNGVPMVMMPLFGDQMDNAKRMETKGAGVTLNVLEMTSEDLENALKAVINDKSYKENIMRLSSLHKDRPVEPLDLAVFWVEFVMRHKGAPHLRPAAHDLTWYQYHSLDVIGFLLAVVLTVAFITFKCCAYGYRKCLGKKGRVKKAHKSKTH
Protocol: Microsomal fractions from HEK-293 cells stably expressing human UGT1A9*1, UGT1A9*2 and UGT1A9*3 were used in enzymatic assays. Reactions (100 μl volume) contained 50 mM Tris-HCl, pH 7.3, 10 mM MgCl2, 100 μg/mL phosphatidylcholine, 1 mM UDP-glucuronic acid, 40 to 60 μg of membrane protein. […] Human liver microsome were incubated in the same condition for control. Reaction was stopped by the addition of 200 μL MeOH+1% HCl 2N, followed by centrifugation at 14000 rpm for 10 minutes. Supernatant was filtered through a 0.22 μm filter and 100 μL of water was added. For SN-38 and SN-38-glucuronide detection, 10 μL samples were injected on a liquid chromatographic system coupled to a fluorescence detector. Time-course experiments were realized to determine the linearity of the glucuronidation reaction.
A liquid chromatographic method was developed to quantify SN-38 glucuronidation of UGT cell line-derived microsomes and human liver microsomes. Samples were analyzed using high performance liquid chromatography (Alliance 2695, Waters, Milford, Mass.). […] At a constant flow rate (0.7 ml/min), a linear gradient from 20 to 65% B was run over 3 min, held 0.8 min and a second gradient until 95% of B was run over 2 min and then re-equilibrated to 20% B over 2 min. The effluent from the HPLC system (Alliance 2695) was connected directly to a fluorescence detector (Waters, Milford, Mass.) using an excitation wavelength of […] and an emission of 460 nm. […] Determination of the glucuronidation rates obtained with other substrates was performed as currently known in the art.
Microsomal fractions from HEK293 (40 to 60 μg) were added to a reaction mixture (100 μL) containing 50 mM Tris-HCl, pH 7.3, 10 mM MgCl2, 100 μg/mL phosphatidylcholine and 2 mM UDP-glucuronic acid. […] Commercially available human liver microsomes (Human Cell Culture Center Inc., Laurel, Md.) were incubated in the same conditions for all experiments. Time-course experiments were performed to determine the linearity of the glucuronidation reaction. For the determination of Vmax and Km. HEK293 cells stably expressing UGT1A9 enzymes were incubated in the presence of various concentrations of SN-38 ranging from 0.1 to 200 μM and incubated for 30 min as described above whereas UGT1A7 membranes preparations were incubated for 3 hours. […] Reactions with SN-38 were stopped by the addition of 200 μL MeOH+1% HCl 2N, followed by centrifugation at 14000×g for 10 minutes. The supernatants were filtered through a 0.22 μm membrane and 100 μL of water was added to the filtrate. For the detection of SN-38 and its glucuronide (SN-38G), 10 μL samples were injected in a liquid chromatographic system (HPLC) coupled to fluorescence detector as described below.
A HPLC method was developed to quantify the rates of SN-38 glucuronidation from the various microsomal fractions under study. The HPLC system used was an Alliance 2695 (Waters, Milford, Mass.) equipped with a 50×3.2 mm Colombus C18 column (Phenomenex, Torrance, Calif.). […] Then a second gradient ranging from 65% to 95% solvent B was generated during the following 2 min. Finally, the column was re-equilibrated to 20% solvent B for 2 min. The column was connected to a fluorescence detector model 474 (Waters, Milford, Mass.) and the molecules were excited at a wavelength of 370 nm and an emission of 425 nm.

UGT1A7*6 = biological target: T2, UGT1A7*6 (Homo sapiens, UniProt Q9HAW7, E139D); test: SN-38 glucuronidation by microsomes of HEK293 cells expressing UGT1A7*6; format: in vitro ADME; set-up: key to Function (SN-38G formation versus *1 allele): High: no significant difference in activity compared to *1 allele.; Low: significantly lower SN-38G formation versus *1 allele
T2 construct: expressed in transfected cells
T2 sequence (Q9HAW7 26-530 E139D): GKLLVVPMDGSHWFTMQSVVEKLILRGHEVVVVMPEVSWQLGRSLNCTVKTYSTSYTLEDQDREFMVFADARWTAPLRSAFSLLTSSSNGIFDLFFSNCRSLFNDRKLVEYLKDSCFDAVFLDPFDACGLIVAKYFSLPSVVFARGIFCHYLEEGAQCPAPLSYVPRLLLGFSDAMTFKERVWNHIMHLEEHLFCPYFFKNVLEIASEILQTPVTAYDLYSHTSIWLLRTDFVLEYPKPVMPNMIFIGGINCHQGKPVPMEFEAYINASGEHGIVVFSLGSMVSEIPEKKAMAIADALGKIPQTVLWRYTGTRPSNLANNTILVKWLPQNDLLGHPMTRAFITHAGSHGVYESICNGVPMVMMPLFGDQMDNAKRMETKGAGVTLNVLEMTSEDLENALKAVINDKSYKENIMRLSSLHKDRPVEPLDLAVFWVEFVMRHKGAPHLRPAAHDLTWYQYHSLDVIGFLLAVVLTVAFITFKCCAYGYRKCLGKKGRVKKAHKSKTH
Protocol: Western blot analyses of UGT1A7 and UGT1A9 variants expressed in HEK293 cells were performed on microsomal proteins (10 μg) separated on a 10% SDS-polyacrylamide gel. After transferring the proteins, the membranes were probed with an anti-UGT1A RC-71 polyclonal antibody and with an anti-calnexin antibody. The relative levels of UGT1A9 (a) and UGT1A7 proteins (b) were determined by semi-quantitative densitometric analysis of the Enhanced chemiluminescence (ECL) image. The in vitro SN-38 activity was assessed using microsomal fractions prepared from HEK293 cells expressing the *1 and variant UGT1A9 (c) and UGT1A7 (d) alleles and incubated with 5 μM of SN-38 as described in Materials and Methods.
For the determination of Vmax and Km.

[1] = threonine at position 33, versus UGT1A9*1

In the case of `CCc1c2c(nc3ccc(O)cc13)-c1cc3c(c(=O)n1C2)COC(=O)[C@]3(O)CC` [SN-38, 7-ethyl-10-hydroxycamptothecin], the “residual activity compared to the wild type enzyme (SN-38G formation)” value (human UGT1A9*3; 5 μM of SN-38) is reported as 3.8%, the “Vmax values lower for UGT1A9*3 compared with UGT1A9*1” value (human UGT1A9*3; SN-38 glucuronidation) is reported as “about 26 times” and the Vmax (human UGT1A9*3; SN-38 glucuronidation, 0.1 to 200 μM, mean±SD) is reported as 11.89±2.61 pmol/min/mg protein. The Km (human UGT1A9*3; SN-38 glucuronidation, Table 5) was 3.21 ± 0.95 µM, the Vmax (human UGT1A9*3; SN-38 glucuronidation, Table 5) was 15.50 ± 8.40 and the “SN-38 glucuronidating activity of the allele (in words)” value (human UGT1A9*3; in vitro functional genomic assays) was “low”. The Km (human UGT1A9*3; read-out: Apparent Km, SN-38 glucuronidation, 0.1 to 200 μM, mean±SD, Lineweaver-Burk) was 3.21 ± 0.95 µM, the “decrease of glucuronidation rate” value (human UGT1A9*3; [1]) was “approximately 20 folds” and the “decreased conjugation rate for SN-38” value (human UGT1A9*3; [1]) was 96.3%. For the same molecule, the “effect of codon 33 variation on affinity of the protein for the substrate (in words)” value (human UGT1A9*3; versus UGT1A9*1) was “does not affect significantly”, the “SN-38 glucuronidating activity of the allele (in words)” value (UGT1A7*6) was “highest” and the “Function (SN-38G formation versus *1 allele)” value (UGT1A7*6; in vitro experiments) was “High”.

Source: patent US20060183119A1, “Method for determining predisposition to a physiological reaction in a patient” (UNIVERSITE LAVAL, priority 2002, published 2006)
